In general, inhibition refers to the relative decrease from the control value, in per cent.

The assay concerns the target T1, chimeric human H3 receptor (Homo sapiens, UniProt Q9Y5N1).
T1 construct: rat Galpha-i2 (Gnai2, rat); made in house; host or cells: Sf9 insect cells (baculovirus); P2 membranes
Put plainly: Chimeric human H3 receptor screening GTP binding assay (inhibition of histamine-stimulated GTP-gamma35S binding, Example 8). Conditions: 1 h; assay of Example 8; symbol "!" in column headed Ki; read-out: percent inhibition of agonist-induced GTP-gammaS binding to H3. The assay is classed as biochemical. The method in brief:
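Sf9 membranes co-expressing chimeric human H3 receptor and heterotrimeric G-protein (35 μg protein) incubated 60 min at room temperature with 4 μM compound, 1 μM histamine and 125 pM GTP-gamma35S in pH 7.4 buffer with 10 μM GDP. Filter-bound radioactivity, nonspecific (10 μM GTP-gammaS) subtracted, reported as % inhibition of histamine signal.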
For orientation: GTPγS is a poorly hydrolysed GTP analogue; its binding reports G protein activation.

T1 sequence (Q9Y5N1 with tags, fused parts or gaps): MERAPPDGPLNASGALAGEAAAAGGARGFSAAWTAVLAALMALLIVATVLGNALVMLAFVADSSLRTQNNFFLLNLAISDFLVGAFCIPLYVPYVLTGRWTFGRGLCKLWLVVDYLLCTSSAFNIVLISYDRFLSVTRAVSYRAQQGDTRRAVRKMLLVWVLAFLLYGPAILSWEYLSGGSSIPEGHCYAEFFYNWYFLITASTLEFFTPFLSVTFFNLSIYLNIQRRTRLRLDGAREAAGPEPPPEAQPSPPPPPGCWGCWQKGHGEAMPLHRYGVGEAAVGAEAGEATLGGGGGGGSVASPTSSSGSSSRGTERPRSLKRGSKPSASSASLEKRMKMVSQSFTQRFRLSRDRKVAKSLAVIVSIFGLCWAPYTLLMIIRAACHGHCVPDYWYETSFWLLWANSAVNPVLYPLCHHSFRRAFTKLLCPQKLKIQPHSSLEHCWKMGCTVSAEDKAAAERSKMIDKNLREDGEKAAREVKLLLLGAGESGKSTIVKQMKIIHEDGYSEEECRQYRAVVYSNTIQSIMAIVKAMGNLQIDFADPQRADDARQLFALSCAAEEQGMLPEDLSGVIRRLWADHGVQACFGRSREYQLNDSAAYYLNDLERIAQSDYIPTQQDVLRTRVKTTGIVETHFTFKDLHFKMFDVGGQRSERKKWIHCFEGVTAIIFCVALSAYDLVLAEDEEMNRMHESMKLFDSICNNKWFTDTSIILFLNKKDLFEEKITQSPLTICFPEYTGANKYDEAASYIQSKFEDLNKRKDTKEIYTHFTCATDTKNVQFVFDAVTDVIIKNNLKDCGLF

For `COc1ccc(C(=O)N2CCc3cnc(N4CCN(C5CCC5)CC4)nc3CC2)cc1Cl` [Compound 226, 7-(3-chloro-4-methoxybenzoyl)-2-(4-cyclobutylpiperazin-1-yl)-6,7,8,9-tetrahydro-5H-pyrimido[4,5-d]azepine], the inhibition at 4 µM is not below 90%.

Take `Cc1ccc(C)c(C(=O)N2CCc3cnc(N4CCN(C5CCC5)CC4)nc3CC2)c1` [Compound 227, 2-(4-cyclobutylpiperazin-1-yl)-7-(2,5-dimethylbenzoyl)-6,7,8,9-tetrahydro-5H-pyrimido[4,5-d]azepine]: the inhibition at 4 µM is not below 90%.

As for `COCCOCC(=O)N1CCc2cnc(N3CCN(C4CCC4)CC3)nc2CC1` [Compound 228, 2-(4-cyclobutylpiperazin-1-yl)-7-[(2-methoxyethoxy)acetyl]-6,7,8,9-tetrahydro-5H-pyrimido[4,5-d]azepine], the inhibition at 4 µM is not below 90%.

For the molecule `c1ccc(CN2CCc3cnc(N4CCN(C5CCC5)CC4)nc3CC2)cc1` [Compound 229, 7-benzyl-2-(4-cyclobutylpiperazin-1-yl)-6,7,8,9-tetrahydro-5H-pyrimido[4,5-d]azepine], the inhibition at 4 µM is not below 90%.

Regarding `Fc1ccccc1CN1CCc2cnc(N3CCN(C4CCC4)CC3)nc2CC1` [Compound 230, 2-(4-cyclobutylpiperazin-1-yl)-7-(2-fluorobenzyl)-6,7,8,9-tetrahydro-5H-pyrimido[4,5-d]azepine], the inhibition at 4 µM was not below 90%.

As to `Fc1cccc(CN2CCc3cnc(N4CCN(C5CCC5)CC4)nc3CC2)c1` [Compound 231, 2-(4-cyclobutylpiperazin-1-yl)-7-(3-fluorobenzyl)-6,7,8,9-tetrahydro-5H-pyrimido[4,5-d]azepine], the inhibition at 4 µM was not below 90%.

Take `Fc1ccc(CN2CCc3cnc(N4CCN(C5CCC5)CC4)nc3CC2)cc1` [Compound 232, 2-(4-cyclobutylpiperazin-1-yl)-7-(4-fluorobenzyl)-6,7,8,9-tetrahydro-5H-pyrimido[4,5-d]azepine]: the inhibition at 4 µM is not below 90%.

On to `Cc1cccc(CN2CCc3cnc(N4CCN(C5CCC5)CC4)nc3CC2)c1` [Compound 233, 2-(4-cyclobutylpiperazin-1-yl)-7-(3-methylbenzyl)-6,7,8,9-tetrahydro-5H-pyrimido[4,5-d]azepine], for which the inhibition at 4 µM was not below 90%.

Regarding `Cc1ccc(CN2CCc3cnc(N4CCN(C5CCC5)CC4)nc3CC2)cc1` [Compound 234, 2-(4-cyclobutylpiperazin-1-yl)-7-(4-methylbenzyl)-6,7,8,9-tetrahydro-5H-pyrimido[4,5-d]azepine], the inhibition at 4 µM is not below 90%.

For `Cn1ccnc1CN1CCc2cnc(N3CCN(C4CCC4)CC3)nc2CC1` [Compound 235, 2-(4-cyclobutylpiperazin-1-yl)-7-[(1-methyl-1H-imidazol-2-yl)methyl]-6,7,8,9-tetrahydro-5H-pyrimido[4,5-d]azepine], the inhibition at 4 µM was not below 90%.

With `c1ccc2c(CN3CCc4cnc(N5CCN(C6CCC6)CC5)nc4CC3)ccnc2c1` [Compound 236, 2-(4-cyclobutylpiperazin-1-yl)-7-(quinolin-4-ylmethyl)-6,7,8,9-tetrahydro-5H-pyrimido[4,5-d]azepine], the inhibition at 4 µM was not below 90%.

Consider `c1ccc2ncc(CN3CCc4cnc(N5CCN(C6CCC6)CC5)nc4CC3)cc2c1` [Compound 237, 2-(4-cyclobutylpiperazin-1-yl)-7-(quinolin-3-ylmethyl)-6,7,8,9-tetrahydro-5H-pyrimido[4,5-d]azepine], for which the inhibition at 4 µM is not below 90%.

Consider `Cc1cccc(CN2CCc3cnc(N4CCN(C5CCC5)CC4)nc3CC2)n1` [Compound 238, 2-(4-cyclobutylpiperazin-1-yl)-7-[(6-methylpyridin-2-yl)methyl]-6,7,8,9-tetrahydro-5H-pyrimido[4,5-d]azepine], for which the inhibition at 4 µM was not below 90%.

As for `c1cncc(CN2CCc3cnc(N4CCN(C5CCC5)CC4)nc3CC2)c1` [Compound 239, 2-(4-cyclobutylpiperazin-1-yl)-7-(pyridin-3-ylmethyl)-6,7,8,9-tetrahydro-5H-pyrimido[4,5-d]azepine], the inhibition at 4 µM is not below 90%.

As to `c1cc(N2CCOCC2)ncc1CN1CCc2cnc(N3CCN(C4CCC4)CC3)nc2CC1` [Compound 240, 2-(4-cyclobutylpiperazin-1-yl)-7-[(6-morpholin-4-ylpyridin-3-yl)methyl]-6,7,8,9-tetrahydro-5H-pyrimido[4,5-d]azepine], the inhibition at 4 µM is not below 90%.

For `Cc1cc(CN2CCc3cnc(N4CCN(C5CCC5)CC4)nc3CC2)n(C)n1` [Compound 241, 2-(4-cyclobutylpiperazin-1-yl)-7-[(1,3-dimethyl-1H-pyrazol-5-yl)methyl]-6,7,8,9-tetrahydro-5H-pyrimido[4,5-d]azepine], the inhibition at 4 µM was not below 90%.

`COc1ccccc1CN1CCc2cnc(N3CCN(C4CCC4)CC3)nc2CC1` [Compound 242, 2-(4-cyclobutylpiperazin-1-yl)-7-(2-methoxybenzyl)-6,7,8,9-tetrahydro-5H-pyrimido[4,5-d]azepine]: the inhibition at 4 µM was not below 90%.

Regarding `COc1ccc(CN2CCc3cnc(N4CCN(C5CCC5)CC4)nc3CC2)c(OC)c1` [Compound 243, 2-(4-cyclobutylpiperazin-1-yl)-7-(2,4-dimethoxybenzyl)-6,7,8,9-tetrahydro-5H-pyrimido[4,5-d]azepine], the inhibition at 4 µM was not below 90%.

Regarding `CC(C)c1ccc(CN2CCc3cnc(N4CCN(C5CCC5)CC4)nc3CC2)cc1` [Compound 244, 2-(4-cyclobutylpiperazin-1-yl)-7-(4-isopropylbenzyl)-6,7,8,9-tetrahydro-5H-pyrimido[4,5-d]azepine], the inhibition at 4 µM is not below 90%.

Turning to `CCN1CCc2cnc(N3CCN(C4CCC4)CC3)nc2CC1` [Compound 245, 2-(4-cyclobutylpiperazin-1-yl)-7-ethyl-6,7,8,9-tetrahydro-5H-pyrimido[4,5-d]azepine], the inhibition at 4 µM was not below 90%.

For `CC(C)CCN1CCc2cnc(N3CCN(C4CCC4)CC3)nc2CC1` [Compound 246, 2-(4-cyclobutylpiperazin-1-yl)-7-(3-methylbutyl)-6,7,8,9-tetrahydro-5H-pyrimido[4,5-d]azepine], the inhibition at 4 µM is not below 90%.

In the case of `CCCN1CCc2cnc(N3CCN(C4CCC4)CC3)nc2CC1` [Compound 247, 2-(4-cyclobutylpiperazin-1-yl)-7-propyl-6,7,8,9-tetrahydro-5H-pyrimido[4,5-d]azepine], the inhibition at 4 µM was not below 90%.

For the molecule `CCCCN1CCc2cnc(N3CCN(C4CCC4)CC3)nc2CC1` [Compound 248, 7-butyl-2-(4-cyclobutylpiperazin-1-yl)-6,7,8,9-tetrahydro-5H-pyrimido[4,5-d]azepine], the inhibition at 4 µM was not below 90%.

As for `CCCCCN1CCc2cnc(N3CCN(C4CCC4)CC3)nc2CC1` [Compound 249, 2-(4-cyclobutylpiperazin-1-yl)-7-pentyl-6,7,8,9-tetrahydro-5H-pyrimido[4,5-d]azepine], the inhibition at 4 µM is not below 90%.

`CCCCCCN1CCc2cnc(N3CCN(C4CCC4)CC3)nc2CC1` [Compound 250, 2-(4-cyclobutylpiperazin-1-yl)-7-hexyl-6,7,8,9-tetrahydro-5H-pyrimido[4,5-d]azepine]: the inhibition at 4 µM was not below 90%.

In the case of `CC(C)CN1CCc2cnc(N3CCN(C4CCC4)CC3)nc2CC1` [Compound 251, 2-(4-cyclobutylpiperazin-1-yl)-7-isobutyl-6,7,8,9-tetrahydro-5H-pyrimido[4,5-d]azepine], the inhibition at 4 µM is not below 90%.

`CCC(C)CN1CCc2cnc(N3CCN(C4CCC4)CC3)nc2CC1` (centres unmarked) [Compound 252, 2-(4-cyclobutylpiperazin-1-yl)-7-(2-methylbutyl)-6,7,8,9-tetrahydro-5H-pyrimido[4,5-d]azepine]: the inhibition at 4 µM is not below 90%.

As for `CCC(CC)CN1CCc2cnc(N3CCN(C4CCC4)CC3)nc2CC1` [Compound 253, 2-(4-cyclobutylpiperazin-1-yl)-7-(2-ethylbutyl)-6,7,8,9-tetrahydro-5H-pyrimido[4,5-d]azepine], the inhibition at 4 µM is not below 90%.

Regarding `c1nc(N2CCN(C3CCC3)CC2)nc2c1CCN(CC1CC1)CC2` [Compound 254, 2-(4-cyclobutylpiperazin-1-yl)-7-(cyclopropylmethyl)-6,7,8,9-tetrahydro-5H-pyrimido[4,5-d]azepine], the inhibition at 4 µM was not below 90%.

`CCCC(C)CN1CCc2cnc(N3CCN(C4CCC4)CC3)nc2CC1` (centres unmarked) [Compound 255, 2-(4-cyclobutylpiperazin-1-yl)-7-(2-methylpentyl)-6,7,8,9-tetrahydro-5H-pyrimido[4,5-d]azepine]: the inhibition at 4 µM was not below 90%.

`c1nc(N2CCN(C3CCC3)CC2)nc2c1CCN(CC1CCOC1)CC2` (centres unmarked) [Compound 256, 2-(4-cyclobutylpiperazin-1-yl)-7-(tetrahydrofuran-3-ylmethyl)-6,7,8,9-tetrahydro-5H-pyrimido[4,5-d]azepine]: the inhibition at 4 µM is not below 90%.

In the case of `Cc1ccc(CN2CCc3cnc(N4CCN(C5CCC5)CC4)nc3CC2)cc1C` [Compound 257, 2-(4-cyclobutylpiperazin-1-yl)-7-(3,4-dimethylbenzyl)-6,7,8,9-tetrahydro-5H-pyrimido[4,5-d]azepine], the inhibition at 4 µM is not below 90%.

For the molecule `c1cc2c(cc1CN1CCc3cnc(N4CCN(C5CCC5)CC4)nc3CC1)OCCO2` [Compound 258, 2-(4-cyclobutylpiperazin-1-yl)-7-(2,3-dihydro-1,4-benzodioxin-6-ylmethyl)-6,7,8,9-tetrahydro-5H-pyrimido[4,5-d]azepine], the inhibition at 4 µM was not below 90%.

Regarding `c1ccc2nc(CN3CCc4cnc(N5CCN(C6CCC6)CC5)nc4CC3)ccc2c1` [Compound 259, 2-(4-cyclobutylpiperazin-1-yl)-7-(quinolin-2-ylmethyl)-6,7,8,9-tetrahydro-5H-pyrimido[4,5-d]azepine], the inhibition at 4 µM was not below 90%.

Regarding `COc1cccc(CN2CCc3cnc(N4CCN(C5CCC5)CC4)nc3CC2)c1OC` [Compound 260, 2-(4-cyclobutylpiperazin-1-yl)-7-(2,3-dimethoxybenzyl)-6,7,8,9-tetrahydro-5H-pyrimido[4,5-d]azepine], the inhibition at 4 µM was not below 90%.

Values taken from patent US20080051387A1, “TETRAHYDROPYRIDO[3,4-D]PYRIMIDINES AND RELATED ANALOGUES” (priority 2006, published 2008).
